For data set [1], the system named is ZSF1 obese rats. In words: Oral glucose tolerance test (OGTT) and fasting glucose in ZSF1 rats at week 10. It counts as in vivo, rat. The following applies: enalapril 3 mpk. How it is done: Male ZSF1 rats (body weight 400-430 grams (lean control) and 500-605 grams (obese) at baseline) were used for this study. All animals were housed in a room under controlled conditions of temperature (72±8° F.), relative humidity of 30-70% and a 12-hour light-dark cycle (lights on at 6:00 AM and off at 6:00 PM) at a fully AAALAC accredited, USDA registered and OLAW assured laboratory animal research facility. All animals were allowed free access to rodent chow (Purina 5008+/−test articles) and water (+/−enalapril).
(§1) Blood and 24-hour urine samples were obtained from all animals at day 0 (15 weeks of age; prior to the initiation of enalapril treatment). Animals in Groups 3, 7, 8 and 9 were placed on drinking water containing enalapril and kept on Purina 5008 rodent chow (C13000). Animals in Group 1, 2, 4, 5 and 6 were kept on Purina 5008 rodent chow and drinking water. Ten days after the initiation of enalapril treatment, blood and 24-hour urine samples were collected from all animals. After day 10 blood and urine collections, animals in Groups 4, 5 and 6 received Compound I at 1, 3 and 10 mg/kg/day, respectively for 11 weeks. In addition to enalapril treatment, animals in Groups 7, 8 and 9 received Compound I at 1, 3 and 10 mg/kg/day, respectively for an additional 11 weeks.
(§2) 10 weeks after the initiation of Compound I treatment, animals (27 weeks of age) were fasted for 18 hours. Serum samples were collected for the measurement of fasting insulin levels. Serum insulin levels were determined using the Rat Insulin ELISA kit (Cat #ELR-Insulin, RayBiotech, Inc.)
For OGTT, animals were given glucose solution (50% Dextrose) at 2 g/kg via oral gavage. Blood samples were collected prior to oral glucose administration (0 minute) and 30, 60, 90, 120 and 180 minutes after administration. Blood glucose levels were measured using a standard blood glucose monitoring system (AlphaTRAK). The blood glucose reading at time 0 (prior to glucose administration) corresponds to the fasting glucose measurement.
(§3) The data are expressed as mean±SEM. […] One-tailed tests were used for comparison of variables. Statistical significance is indicated by P values less than 0.05.

The test system of data set [2] is ZSF1 obese rats. In words: Fasting serum insulin in ZSF1 rats (Rat Insulin ELISA). Particulars: week 10, enalapril 3 mpk. It counts as in vivo.
Description: as §1, §2, §3

In data set [3] the test system is ZSF1 obese rats. As to the kind of experiment: ZSF1 rat study: serum clinical chemistry (cholesterol, triglycerides), body weight, clinical observations. The format is in vivo. Particulars: ZSF1 obese rats; enalapril 3 mg/kg/day; Animal #8; 3 days after initiation.
Description: as §1
Body weight and 24-hour water intake were obtained at least once every other week. 24-hour food intake was measured at baseline and week 8.
Plasma (for biomarker) and serum (for clinical chemistry analysis) samples were collected from all treatment groups at baseline, day 10, weeks 5 and 9 prior to placing the animals into the metabolic cages. Plasma samples were obtained from Groups 3-9 for measurement of compound exposure levels at weeks 5 and 11. Terminal plasma and serum samples were obtained at necropsy.
For serum samples, blood was collected in serum separator tubes, maintained at room temperature for at least 30 minutes and then centrifuged at 6000 rpm for 10 minutes. Serum samples were stored at −80° C. until analysis. Urine and serum samples were analyzed using the Randox Daytona Clinical Chemistry Analyzer. All measurements were performed in accordance with manufacturer's instructions.
Animal #8 (in Group 3, ZSF1—enalapril 3 mg/kg/day) was found dead 3 days after the initiation of enalapril treatment.

Structures are written as SMILES.

With `CCOC(=O)[C@H](CCc1ccccc1)N[C@@H](C)C(=O)N1CCC[C@H]1C(=O)O` [enalapril, reference compound], in data set [1], the “Fasting Blood Glucose (0 minute)” value stood at 255 ± 13 mg/dL, the “OGTT Area Under Curve (AUC)” value was determined as 84459 ± 1409, the “OGTT Blood Glucose 120 minutes” value came to 452 ± 10 mg/dL and the “OGTT Blood Glucose 180 minutes” value is listed as 435 ± 9 mg/dL. Besides, the “Fasting Insulin” value in data set [2] turned out to be 11.4 ± 1.7 μIU/mL. For the same compound, the clinical observation entry in data set [3] was “found dead”.

These data come from patent publication US11389449B2, “Treatment of metabolic syndrome with an sGC stimulator” (Cyclerion Therapeutics, Inc., priority 2017, dated 2022).
